Experimental data: patent US20260184712A1, “Heterocyclic Compounds as ENT Inhibitors and Compounds for Use in the Treatment of Cancers” (iTeos Belgium SA, priority 2022, published 2026)

Legend:
human ENT1 = target: T1, human ENT1 (Homo sapiens, UniProt Q99808); assay: ENT1 binding assay (competition with Sahenta-DY647 on JAR cells); conditions: competition with SAHENTA-DY647 binding; IC50 categorized; read-out: Binding Assay IC50
T1 construct: JAR cells expressing ENT1 were purchased from ATCC; host or cells: JAR cells
T1 sequence (Q99808 1-456): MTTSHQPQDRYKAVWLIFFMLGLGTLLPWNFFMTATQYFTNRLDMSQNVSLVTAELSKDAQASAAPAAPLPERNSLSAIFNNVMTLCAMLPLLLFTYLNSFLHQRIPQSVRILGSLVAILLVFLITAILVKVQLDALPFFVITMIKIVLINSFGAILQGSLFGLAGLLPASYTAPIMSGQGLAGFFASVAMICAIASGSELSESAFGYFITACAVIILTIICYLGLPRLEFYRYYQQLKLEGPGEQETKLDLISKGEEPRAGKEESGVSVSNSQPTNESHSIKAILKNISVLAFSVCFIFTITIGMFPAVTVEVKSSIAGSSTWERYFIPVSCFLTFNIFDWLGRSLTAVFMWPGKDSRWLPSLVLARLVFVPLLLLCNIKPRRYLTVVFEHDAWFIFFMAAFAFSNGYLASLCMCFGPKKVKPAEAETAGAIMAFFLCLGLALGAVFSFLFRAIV
Procedure, shortened: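 Whole-cell competition on JAR cells (native ENT1): 50,000 cells pre-incubated 30 min at 4 °C with compound in HBSS/10 mM Hepes/0.1% BSA, then 100 nM Sahenta-DY647 added for 30 min at 4 °C. After washing, fluorescence (Ex 630/Em 670 nm) read; IC50 from sigmoidal fit, averaged as pIC50.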

[1] = tested on: stimulated primary human T cells; assay: T cell proliferation assay, Condition B (X-VIVO15, 2% HSA and 0.1% AAG); assay type: cell-based; conditions: Homo sapiens, T-cell, 96 h; Condition B: X-VIVO15 medium containing HSA and α1-Acid Glycoprotein; anti-CD3/anti-CD28 beads, ATP, 4 days; CFSE-lo T cells
Experimental: The goal of this study was to determine the potency of ENT1 inhibitors by measuring the rescued proliferation of stimulated primary human T cells incubated in the presence of 100 uM Adenosine triphosphate (ATP), in baseline conditions (condition A) or in the presence of various proteins known to bind small molecules (condition B).
Condition B: X-VIVO15, 2% Human Serum Albumin (HSA) and 0.1% α-1-Acid Glycoprotein (AAG)
Venous blood from healthy volunteers, all of whom signed an informed consent approved by the Ethics Committee (FOR—UIC—BV-050-01-01 ICF_HBS_HD Version 5.0), was obtained by ImmuneHealth (Centre Hospitalier Universitaire Tivoli, La Louviere, Belgium). Mononuclear cells were collected by density gradient centrifugation, using SepMate-50 tubes (StemCell Technologies, Grenoble, France) and Lymphoprep (Stemcell Technologies) according to the manufacturer's instructions. CD3+ T cells were isolated by immunomagnetic negative selection, using the EasySep Human T Cell Isolation Kit (StemCell Technologies) as per the manufacturer's instructions. CD3+ T cells were stored in heat inactivated FBS (hiFBS; Gibco, ThermoFisher Scientific, Merelbeke, Belgium) and 10% DMSO in liquid nitrogen.
Purified human CD3+ T cells were thawed and washed once with RPMI1640 medium, UltraGlutamine (Lonza, Verviers, Belgium) containing 10% hiFBS. Cells were resuspended in PBS containing 10% hiFBS at 1×10^7 cells/ml. One volume of cells was combined with a matching volume of 2 μM CFSE solution in PBS, mixed well by pipetting, and incubated at room temperature for 5 minutes under rotation and protected from light. Excess CFSE was quenched by addition of PBS containing 10% hiFBS, and the cells were centrifuged (300×rcf, 7 minutes) and resuspended in X-VIVO15. Cells were again centrifuged and resuspended in X-VIVO15 for counting.
Cells were resuspended at 1.6×10^6 cells/mL in X-VIVO15 medium (Condition A) or X-VIVO15 medium containing 4% (v/v) HSA (Sigma-Aldrich, Diegem, Belgium) and 0.2% (v/v) ai-Acid Glycoprotein (Sigma-Aldrich, Diegem, Belgium) (Condition B).
[…] of cell suspension (2×10^4 cells) was added to wells of sterile flat-bottom 384-well plates. Cells were activated by adding […] of anti-CD3 anti-CD28 coated microbeads (Dynabeads human T-activator CD3/CD28; Life Technologies, Paisley, UK) suspended in X-VIVO15 medium or X-VIVO15 medium containing 4% (v/v) HSA and 0.2% (v/v) ai-Acid Glycoprotein at a ratio of one microbead per two cells. Serial dilutions of the ENT1 inhibitors were conducted in X-VIVO15 medium and […] of the diluent was added to the wells. Cells were mixed by pipetting up and down and pre-incubated for 30 minutes in a 37° C. humidified tissue culture incubator with 5% CO2. After pre-incubation, cells were cultured in the presence or absence of ATP (Sigma-Aldrich) at a final concentration of […]. The final well volume was 50 μl in all cases. Experiments were performed in biological duplicates. Cells were mixed by pipetting up and down and incubated for 4 days in a 37° C. humidified tissue culture incubator with 5% CO2.
Samples were run on a BD LSR Fortessa FACS machine (BD FACSDiva Software v9.0.1). Data were analyzed using FlowJo (BD, v10.7.1). T cell proliferation was determined by measuring the frequency of ‘CFSE^lo’ (i.e. CFSE-diluted).
T cell proliferation data were analyzed using FlowJo software (Version 10.6.2). Dead cells and cellular debris were excluded on the basis of forward and side scatter profile and singlet cells were selected for further analysis.
T cell proliferation was determined based on the percent CFSE^lo total T cells for each condition. The data were plotted on the y-axis against log molar (M) concentration of ENT1 inhibitors on the x-axis in GraphPad Prism (version 9.0.0). IC50 and IC90 values were generated with the ‘log(agonist) vs. response—Find ECanything(F))’ function with F constrained to 50 or 90, respectively. pICF values were generated by taking the −logECF values.

SMILES | IC50 (human ENT1) | IC50 [1]
C[C@H]1O[C@@H](n2c(N[C@H]3CC[C@](C)(O)CC3)nc3c(OCc4ccc(OC(F)F)cc4)ncnc32)[C@H](O)[C@@H]1O [Compound 121] | 1 to 20 nM | 20 to 500 nM
CCNc1nc2c(N3CCc4ccc(C#N)cc4C3)ncnc2n1[C@@H]1O[C@H](C)[C@@H](O)[C@H]1O [Compound 198] | 20 to 500 nM | 
C[C@H]1O[C@@H](n2cnc3c(OCc4ccccc4C(F)(F)F)ncnc32)[C@H](O)[C@@H]1O [Compound 323] | > 500 nM | 
C[C@H]1O[C@@H](n2cnc3c(OCc4ccc(Cl)c(Cl)c4)ncnc32)[C@H](O)[C@@H]1O [Compound 226] | > 500 nM | 
C[C@H]1O[C@@H](n2c(NC3CCC(O)C3)nc3c(OCc4ccc(F)cc4)ncnc32)[C@H](O)[C@@H]1O (some centres unmarked) [Compound 102] | 1 to 20 nM | 
Cc1cc2cc(CNc3ncnc4c3ncn4[C@@H]3O[C@H](C)[C@@H](O)[C@H]3O)ccc2[nH]1 [Compound 339] | > 500 nM | 
C[C@H]1O[C@@H](n2cnc3c(N4CCC(c5ccc([N+](=O)[O-])cc5)C4)ncnc32)[C@H](O)[C@@H]1O (some centres unmarked) [Compound 315] | > 500 nM | 
C[C@H]1O[C@@H](n2cnc3c(C(=O)N4CCC(c5ccc([N+](=O)[O-])cc5)CC4)ncnc32)[C@H](O)[C@@H]1O [Compound 418] | > 500 nM | 
C[C@H]1O[C@@H](n2cnc3c(OCc4cccc(C(F)(F)F)c4)ncnc32)[C@H](O)[C@@H]1O [Compound 274] | > 500 nM | 
Cc1nc(OCc2ccc([N+](=O)[O-])cc2)c2ncn([C@@H]3O[C@H](C)[C@@H](O)[C@H]3O)c2n1 [Compound 259] | > 500 nM | 
C[C@H]1O[C@@H](n2cnc3c(OCCc4ccc([S+](C)[O-])cc4)ncnc32)[C@H](O)[C@@H]1O (some centres unmarked) [Compound 408] | > 500 nM | 
C[C@H]1O[C@@H](n2cnc3c(C(=O)NCc4ccc(Cl)cc4F)ncnc32)[C@H](O)[C@@H]1O [Compound 330] | > 500 nM | 
C[C@H]1O[C@@H](n2c(N[C@H]3C[C@@H](O)C3)nc3c(OCc4ccc(C#N)cc4)ncnc32)[C@H](O)[C@@H]1O [Compound 51] | 1 to 20 nM | 
C[C@H]1O[C@@H](n2cnc3c(OCc4ccc(-c5ccncc5)cc4)ncnc32)[C@H](O)[C@@H]1O [Compound 364] | > 500 nM | 
COc1ccccc1COc1ncnc2c1ncn2[C@@H]1O[C@H](C)[C@@H](O)[C@H]1O [Compound 325] | > 500 nM | 
Cc1cc(Cl)ccc1COc1ncnc2c1ncn2[C@@H]1O[C@H](C)[C@@H](O)[C@H]1O [Compound 235] | > 500 nM | 
C[C@H]1O[C@@H](n2cnc3c(NCc4cccc(-c5ncco5)c4)ncnc32)[C@H](O)[C@@H]1O [Compound 380] | > 500 nM | 
Cc1cc(CSc2ncnc3c2ncn3[C@@H]2O[C@H](C)[C@@H](O)[C@H]2O)n(C)n1 [Compound 289] | > 500 nM | 
C[C@H]1O[C@@H](n2cnc3c(OCCc4ccc(C(F)F)cc4)ncnc32)[C@H](O)[C@@H]1O [Compound 267] | > 500 nM | 
C[C@H]1O[C@@H](n2c(NCC3COC3)nc3c(OCc4ccc(Cl)cc4)ncnc32)[C@H](O)[C@@H]1O [Compound 423] | > 500 nM | 

SMILES | IC50 (human ENT1) | IC50 [1]
C[C@H]1O[C@@H](n2c(N[C@H]3CC[C@](C)(O)CC3)nc3c(OCc4ccc(Cl)cc4)ncnc32)[C@H](O)[C@@H]1O [Compound 127] | 20 to 500 nM | 
C[C@H]1O[C@@H](n2c(NCC3CC(F)(F)C3)nc3c(OCc4ccc(C#N)cc4)ncnc32)[C@H](O)[C@@H]1O [Compound 104] | 1 to 20 nM | 
C[C@H]1O[C@@H](n2cnc3c(OCc4ccc([N+](=O)[O-])cn4)ncnc32)[C@H](O)[C@@H]1O [Compound 281] | > 500 nM | 
C[C@H]1O[C@@H](n2cnc3c(OCCc4ccc(C#N)nc4)ncnc32)[C@H](O)[C@@H]1O [Compound 319] | > 500 nM | 
C[C@H]1O[C@@H](n2cnc3c(SCc4cnc(C(F)(F)F)nc4)ncnc32)[C@H](O)[C@@H]1O [Compound 311] | > 500 nM | 
C[C@H]1O[C@@H](n2c(NCCCS(C)(=O)=O)nc3c(OCc4ccc(C#N)cc4)ncnc32)[C@H](O)[C@@H]1O [Compound 61] | 20 to 500 nM | 
C[C@H]1O[C@@H](n2c(NC3CCOCC3)nc3c(N4CCc5ccccc5C4)ncnc32)[C@H](O)[C@@H]1O [Compound 170] | 20 to 500 nM | 
C[C@H]1O[C@@H](n2cnc3c(NCc4ccccc4C#N)ncnc32)[C@H](O)[C@@H]1O [Compound 357] | > 500 nM | 
COc1cc(COc2ncnc3c2ncn3[C@@H]2O[C@H](C)[C@@H](O)[C@H]2O)cc(OC)c1OC [Compound 382] | > 500 nM | 
CC1OC(n2c(NC3CCC(C)(O)CC3)nc3c(OCc4ccc([N+](=O)[O-])cc4)ncnc32)C(O)C1O (single isomer, unassigned) [Compound 117] | 1 to 20 nM | 
C[C@H]1O[C@@H](n2cnc3c(OCCc4ccc(OC(F)(F)F)cc4)ncnc32)[C@H](O)[C@@H]1O [Compound 241] | > 500 nM | 
C[C@H]1O[C@@H](n2c(NCC3CCC(F)(F)C3)nc3c(OCc4ccc(C#N)cc4)ncnc32)[C@H](O)[C@@H]1O (some centres unmarked) [Compound 105] | 1 to 20 nM | 
C[C@H]1O[C@@H](n2c(N[C@H]3CC[C@@H](O)CC3)nc3c(N4CCc5ccccc5C4)ncnc32)[C@H](O)[C@@H]1O [Compound 195] | 20 to 500 nM | 
C[C@H]1O[C@@H](n2cnc3c(N4CCC(c5ccc([N+](=O)[O-])cc5)CC4)ncnc32)[C@H](O)[C@@H]1O [Compound 213] | 20 to 500 nM | 
C[C@H]1O[C@@H](n2c(NCC3COC3)nc3c(OCc4ccc(C#N)cc4)ncnc32)[C@H](O)[C@@H]1O [Compound 107] | 20 to 500 nM | 
Cc1cc(CSc2ncnc3c2ncn3[C@@H]2O[C@H](C)[C@@H](O)[C@H]2O)no1 [Compound 348] | > 500 nM | 
NC[C@H]1O[C@@H](n2cnc3c(SCc4ccc([N+](=O)[O-])cc4)ncnc32)[C@H](O)[C@@H]1O [Compound 287] | > 500 nM | 
CNC(=O)[C@H]1O[C@@H](n2cnc3c(OCc4ccc([N+](=O)[O-])cc4)ncnc32)[C@H](O)[C@@H]1O [Compound 279] | > 500 nM | 
C[C@H]1O[C@@H](n2cnc3c(OCc4ccc(F)cc4)ncnc32)[C@H](O)[C@@H]1O [Compound 202] | 20 to 500 nM | 
C[C@H]1O[C@@H](n2cnc3c(-n4cc(-c5ccc([N+](=O)[O-])cc5)nn4)ncnc32)[C@H](O)[C@@H]1O [Compound 416] | > 500 nM | 
